# Tests used:
# [1] = tested on: TAA-induced model hepatic fibrosis in mice; experiment: Treatment of TAA-induced model hepatic fibrosis in mice by oral (intragastric) administration; hydroxyproline test and alanine aminotransferase test; type: in vivo, ICR mice; details: hepatic tissue, 20mg/kg intragastrically in corn oil, twice a week, 4 weeks, TAA 200mg/kg, mean value ± standard deviation; for hydroxyproline: TAA model group 356±43; for alanine aminotransferase: TAA model group 372±24
# Text: (§1) The following example is to be regarded as a case to illustrate specific details of this invention. It should not be viewed as to limit the application scope of this invention. Application of Indole-3-carbinol, Diindolylmethane and Derivatives thereof Disclosed in This Invention in the Treatment of Modeled Hepatic Fibrosis: • 1. Injecting the phosphate buffer solution of thioacetamide (TTA) into the abdominal cavity of ICR mice so that TTA models of hepatic fibrosis can be established. • 2. Dissolving indole-3-carbinol, diindolylmethane and derivative thereof in corn oil and treating hepatic fibrosis through intragastric administration at the same time of the establishment of TTA models of hepatic fibrosis. • 3. Administering TAA, indole-3-carbinol, diindolylmethane and derivatives thereof twice a week for four weeks in succession; killing the mice and taking out the liver for hydroxyproline test and alanine aminotransferase (ALT) test. Application of Water Injection of Indole-3-carbinol, Diindolylmethane and Derivatives thereof Disclosed in This Invention in the Treatment of Modeled Hepatic Fibrosis: • 1. Injecting the phosphate buffer solution of thioacetamide (TTA) into the abdominal cavity of ICR mice so that TTA models of hepatic fibrosis can be established. • 2. Dissolving indole-3-carbinol, diindolylmethane and derivative thereof in water and treating hepatic fibrosis through intraperitoneal administration at the same time of the establishment of TTA models of hepatic fibrosis. • 3. Administering TAA, indole-3-carbinol, diindolylmethane and derivatives thereof twice a week for four weeks in succession; killing the mice and taking out the liver for hydroxyproline test and alanine aminotransferase (ALT) test. Dissolving I3C, DIM and methoxyl-DIM in corn oil so that 2.0mg/ml stock solution can be obtained for later use; establishing TAA models of hepatic fibrosis in mice with the method commonly adopted in the related literature, namely, picking 40 mice weighing 16-18g and randomly dividing them into four groups: TAA model group, I3C treatment group, DIM treatment group and 5-methoxyl-DIM treatment group; injecting TAA phosphate buffer solution (200mg/kg) into the abdominal cavity of the mice, twice a week; starting the treatment at the same time of the model establishment: administering the correlated drugs intragastrically at the rate of 20mg/kg to the mice in I3C treatment group, DIM treatment group and 5-methoxyl-DIM treatment group, twice a week; in contrast, the mice in the TAA model group are given only corn oil at the same dosage and frequency. Killing all mice of the four groups 4 weeks later and taking out the pathologically changed hepatic tissue for hydroxyproline test and alanine aminotransferase test. • (1) Hydroxyproline test Preparing the tissue homogenate of the pathologically changed liver and extracting the supernatant thereof; testing the concentration of hydroxyproline by means of alkaline hydrolysis. • (2) Results of alanine aminotransferase test Testing the serum of mice so that the concentration of alanine aminotransferase can be determined. When hepatic fibrosis is in process, what accumulate in liver are mainly collagen fibers. Since hydroxyproline is specific to collagen fibers, its concentration to some extent reflects the degree of hepatic fibrosis. As is shown in table 1, the oral administration of I3C, DIM and derivatives thereof can effectively relieve hepatic fibrosis as the concentration of hydroxyproline in the treatment groups is significant lower than that of the TAA model group. […]
# [2] = tested on: TAA-induced model hepatic fibrosis in mice; experiment: Treatment of TAA-induced model hepatic fibrosis in mice by intraperitoneal administration of water injection; hydroxyproline test and alanine aminotransferase test; type: in vivo, ICR mice; details: 20mg/kg intraperitoneally, water injection with cyclodextrin in physiological saline, twice a week, 4 weeks, mean value ± standard deviation; for alanine aminotransferase: TAA model group 392±31; for hydroxyproline: hepatic tissue, TAA model group 363±32
# Text: as §1, with “determined.” for “determined. When hepatic fibrosis is in process, what accumulate in liver are mainly collagen fibers. Since hydroxyproline is specific to collagen fibers, its concentration to some extent reflects the degree of hepatic fibrosis. As is shown in table 1, the oral administration of I3C, DIM and derivatives thereof can effectively relieve hepatic fibrosis as the concentration of hydroxyproline in the treatment groups is significant lower than that of the TAA model group.”
Compound,hydroxyproline [1] [µg/g liver],alanine aminotransferase [1] [U/mgprot],alanine aminotransferase [2] [U/mgprot],hydroxyproline [2] [µg/g liver]
COc1ccc2[nH]cc(Cc3c[nH]c4ccc(OC)cc34)c2c1 [5-methoxyl-DIM],194±17,236±12,226±19,203±14
"c1ccc2c(Cc3c[nH]c4ccccc34)c[nH]c2c1 [DIM, 3,3'-Diindolylmethane]",176±21,204±37,187±29,195±24
"OCc1c[nH]c2ccccc12 [I3 C, indole-3-carbinol]",237±11,245±32,239±21,253±21
